# Laboratory results published in patent US20190099421A1, “CINNOLIN-4-AMINE COMPOUNDS AND THEIR USE IN TREATING CANCER” (AstraZeneca AB, priority 2016, published 2019).
# Target: T1, ATM (Homo sapiens, UniProt Q13315)
# T1 construct: endogenous in cells; host or cells: HT29 cells (ECACC #85061109)
# Test: Assay a): ATM cellular potency (pATM Ser1981 in irradiated HT29 cells)
# Format: cell-based
# Conditions: 1 h compound incubation, X-ray irradiation ~600 cGy, pATM (Ser1981) staining 1 h later; read-out: Assay a) ATM Cell IC50
# Description: IC50 values were calculated using a smart fitting model in Genedata.
# Most ATM molecules in the cell are rapidly phosphorylated on this site after doses of radiation as low as 0.5 Gy, and binding of a phosphospecific antibody is detectable after the introduction of only a few DNA double-strand breaks in the cell.
# The rationale of the pATM assay is to identify inhibitors of ATM in cells. HT29 cells are incubated with test compounds for 1 hr prior to X-ray-irradiation. 1 h later the cells are fixed and stained for pATM (Ser1981). The fluorescence is read on the arrayscan imaging platform.
# The following morning compounds of Formula (I) in 100% DMSO were added to assay plates by acoustic dispensing. After 1 h incubation at 37° C. and 5% CO2, plates (up to 6 at a time) were irradiated using the X-RAD 320 instrument (PXi) with equivalent to ˜600 cGy. Plates were returned to the incubator for a further 1 h. […] Then 20 μl of 0.1% Triton X100 in PBS was added and incubated for 20 minutes at r.t., to permeabalise cells. Then the plates were washed once with 50 μl/well PBS, using a Biotek EL405 plate washer.
# After 1 h incubation at r.t., the plates were washed three times with 50 μl/well PBS, using a Biotek EL405 plate washer, and plates were sealed and kept in PBS at 4° C. until read. Plates were read using an ArrayScan VTI instrument, using an XF53 filter with 10× objective.
# T1 sequence (Q13315 whole entry): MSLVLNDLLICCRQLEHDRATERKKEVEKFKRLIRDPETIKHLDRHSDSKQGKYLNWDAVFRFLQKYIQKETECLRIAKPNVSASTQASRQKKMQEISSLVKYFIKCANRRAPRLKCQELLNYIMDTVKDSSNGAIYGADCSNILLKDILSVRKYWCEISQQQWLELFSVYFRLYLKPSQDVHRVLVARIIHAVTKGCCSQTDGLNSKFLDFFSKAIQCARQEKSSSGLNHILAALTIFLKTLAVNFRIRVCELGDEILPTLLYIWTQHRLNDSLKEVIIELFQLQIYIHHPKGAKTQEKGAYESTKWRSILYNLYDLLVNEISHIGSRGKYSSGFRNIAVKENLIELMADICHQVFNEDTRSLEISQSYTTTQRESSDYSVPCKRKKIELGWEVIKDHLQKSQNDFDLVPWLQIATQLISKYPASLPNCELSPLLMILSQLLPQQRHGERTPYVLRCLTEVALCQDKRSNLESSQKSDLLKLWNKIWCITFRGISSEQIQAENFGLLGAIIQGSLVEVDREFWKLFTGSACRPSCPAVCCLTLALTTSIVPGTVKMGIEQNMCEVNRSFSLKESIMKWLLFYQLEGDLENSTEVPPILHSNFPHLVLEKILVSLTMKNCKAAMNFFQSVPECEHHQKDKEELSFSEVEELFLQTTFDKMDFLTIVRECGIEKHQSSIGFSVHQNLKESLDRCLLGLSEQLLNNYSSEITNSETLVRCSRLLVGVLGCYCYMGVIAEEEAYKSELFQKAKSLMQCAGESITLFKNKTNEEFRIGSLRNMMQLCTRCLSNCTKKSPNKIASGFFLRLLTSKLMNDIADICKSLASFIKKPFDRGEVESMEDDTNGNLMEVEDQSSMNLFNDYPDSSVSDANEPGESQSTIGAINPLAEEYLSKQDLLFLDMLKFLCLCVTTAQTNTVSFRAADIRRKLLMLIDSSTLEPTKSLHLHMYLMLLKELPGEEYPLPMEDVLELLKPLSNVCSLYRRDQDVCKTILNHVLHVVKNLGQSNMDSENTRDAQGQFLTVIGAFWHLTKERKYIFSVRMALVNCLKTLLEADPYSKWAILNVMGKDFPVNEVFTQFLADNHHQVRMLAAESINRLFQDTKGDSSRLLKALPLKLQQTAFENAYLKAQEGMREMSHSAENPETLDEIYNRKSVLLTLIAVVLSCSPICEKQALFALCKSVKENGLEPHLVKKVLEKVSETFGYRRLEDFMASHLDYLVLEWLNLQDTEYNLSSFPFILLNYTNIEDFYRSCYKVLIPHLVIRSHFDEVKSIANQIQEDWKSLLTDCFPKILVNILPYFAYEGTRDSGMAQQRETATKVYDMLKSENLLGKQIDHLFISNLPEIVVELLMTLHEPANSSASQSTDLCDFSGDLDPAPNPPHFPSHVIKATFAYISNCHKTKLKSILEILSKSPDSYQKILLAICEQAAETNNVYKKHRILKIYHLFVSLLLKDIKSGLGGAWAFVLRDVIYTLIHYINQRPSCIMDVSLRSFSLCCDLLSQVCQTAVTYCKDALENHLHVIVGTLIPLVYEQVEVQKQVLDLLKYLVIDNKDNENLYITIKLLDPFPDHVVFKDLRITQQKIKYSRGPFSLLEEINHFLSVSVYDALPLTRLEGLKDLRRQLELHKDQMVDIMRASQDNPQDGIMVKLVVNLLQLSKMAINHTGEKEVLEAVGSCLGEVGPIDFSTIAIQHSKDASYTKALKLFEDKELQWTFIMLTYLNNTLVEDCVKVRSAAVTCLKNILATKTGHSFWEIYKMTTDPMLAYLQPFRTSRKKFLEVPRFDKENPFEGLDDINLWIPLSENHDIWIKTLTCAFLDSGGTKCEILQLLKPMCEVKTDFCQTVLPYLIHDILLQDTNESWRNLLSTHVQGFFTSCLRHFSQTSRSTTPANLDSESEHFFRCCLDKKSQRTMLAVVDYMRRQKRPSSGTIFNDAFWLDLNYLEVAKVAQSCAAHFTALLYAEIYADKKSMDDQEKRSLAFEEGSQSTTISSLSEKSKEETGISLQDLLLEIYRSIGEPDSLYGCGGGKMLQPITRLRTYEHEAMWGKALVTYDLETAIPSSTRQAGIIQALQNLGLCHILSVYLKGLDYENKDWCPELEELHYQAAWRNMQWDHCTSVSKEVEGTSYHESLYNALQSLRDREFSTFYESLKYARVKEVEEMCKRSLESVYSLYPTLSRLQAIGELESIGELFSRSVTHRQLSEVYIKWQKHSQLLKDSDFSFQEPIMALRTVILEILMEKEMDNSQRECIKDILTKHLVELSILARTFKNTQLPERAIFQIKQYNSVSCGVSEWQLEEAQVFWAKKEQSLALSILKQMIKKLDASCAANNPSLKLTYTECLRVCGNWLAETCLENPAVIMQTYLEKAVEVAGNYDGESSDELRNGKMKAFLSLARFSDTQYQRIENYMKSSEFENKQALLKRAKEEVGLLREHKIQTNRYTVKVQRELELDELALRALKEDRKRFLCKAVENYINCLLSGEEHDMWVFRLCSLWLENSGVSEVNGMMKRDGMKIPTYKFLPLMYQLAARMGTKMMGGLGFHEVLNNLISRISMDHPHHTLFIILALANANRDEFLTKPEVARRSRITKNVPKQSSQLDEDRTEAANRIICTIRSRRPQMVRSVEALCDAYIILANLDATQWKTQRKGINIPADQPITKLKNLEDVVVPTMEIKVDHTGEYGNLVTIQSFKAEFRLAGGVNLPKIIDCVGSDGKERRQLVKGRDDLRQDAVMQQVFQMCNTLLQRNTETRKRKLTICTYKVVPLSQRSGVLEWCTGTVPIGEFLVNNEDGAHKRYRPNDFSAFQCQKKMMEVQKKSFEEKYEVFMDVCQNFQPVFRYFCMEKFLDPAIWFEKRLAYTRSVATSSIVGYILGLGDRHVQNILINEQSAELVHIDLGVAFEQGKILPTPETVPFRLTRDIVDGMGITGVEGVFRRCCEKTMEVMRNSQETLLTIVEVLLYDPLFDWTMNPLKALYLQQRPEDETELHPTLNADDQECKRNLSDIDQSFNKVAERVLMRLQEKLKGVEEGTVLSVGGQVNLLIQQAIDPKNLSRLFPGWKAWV
row,IC50,Compound
1,4.91 nM,"CNCCCOc1ccc(-c2ccc3nnc(C(=O)NC)c(N[C@@H](C)C4CCOCC4)c3c2)cn1 [Example 5, N-Methyl-6-[6-(3-methylaminopropoxy)pyridin-3-yl]-4-[[(1S)-1-(oxan-4-yl)ethyl]amino]cinnoline-3-carboxamide]"
2,7.72 nM,"CNCCCOc1ccc(-c2ccc3nnc(C(N)=O)c(N[C@@H](C)C4CCOCC4)c3c2)cn1 [Example 4, 6-[6-(3-Methylaminopropoxy)pyridin-3-yl]-4-[[(1S)-1-(oxan-4-yl)ethyl]amino]cinnoline-3-carboxamide]"
